According to patent publication US12213970B2, “Pyridinyl sulfonamide derivatives, pharmaceutical compositions and uses thereof” (Boehringer Ingelheim International GmbH, priority 2018, dated 2025):
Where a name gives a salt, the structure may show the parent alone. Read-outs that look alike come from different tables or passages of the source.

What was measured:
[1] = molecular target: T1, human AOC3 enzyme (recombinant CHO cells) (Homo sapiens, UniProt Q16853); experiment: AOC3 biochemical assay (MAO-Glo), human enzyme
T1 construct: expressed in transfected cells; host or cells: CHO cells
T1 sequence (Q16853 1-763): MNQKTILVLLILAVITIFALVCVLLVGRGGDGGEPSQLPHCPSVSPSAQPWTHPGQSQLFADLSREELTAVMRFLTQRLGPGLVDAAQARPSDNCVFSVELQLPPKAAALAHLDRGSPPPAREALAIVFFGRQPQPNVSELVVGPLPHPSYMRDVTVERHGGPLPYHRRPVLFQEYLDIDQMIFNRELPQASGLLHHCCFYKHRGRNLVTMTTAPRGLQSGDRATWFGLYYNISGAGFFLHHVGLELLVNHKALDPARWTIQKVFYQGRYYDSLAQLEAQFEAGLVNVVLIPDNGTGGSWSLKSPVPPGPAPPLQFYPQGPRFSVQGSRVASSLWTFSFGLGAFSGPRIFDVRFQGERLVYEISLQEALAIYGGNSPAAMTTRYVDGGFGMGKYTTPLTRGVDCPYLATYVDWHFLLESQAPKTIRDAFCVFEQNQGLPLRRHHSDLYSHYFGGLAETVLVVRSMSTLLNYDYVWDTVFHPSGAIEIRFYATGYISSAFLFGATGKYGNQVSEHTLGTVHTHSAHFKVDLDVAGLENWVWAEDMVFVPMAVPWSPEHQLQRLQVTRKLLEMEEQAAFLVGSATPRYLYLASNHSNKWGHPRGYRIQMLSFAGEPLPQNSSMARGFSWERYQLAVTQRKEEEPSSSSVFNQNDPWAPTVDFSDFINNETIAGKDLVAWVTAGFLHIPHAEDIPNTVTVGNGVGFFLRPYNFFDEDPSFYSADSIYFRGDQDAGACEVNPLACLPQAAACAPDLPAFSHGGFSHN
Source text: The MAO-Glo™ Assay (commercially available from PROMEGA, #V1402) provides a sensitive method for the measurement of monoamine oxidase (MAO) activity (Valley, M. P. et al., 2006, Anal. Biochem. 359: 238-246) from a variety of tissues, biofluids or recombinant expressed or purified enzymes. As substrate a derivate of the beetle luciferin ((4S)-4,5-dihydro-2-(6-hydroxybenzothiazolyl)-4-thiazole-carboxylic acid) is used, which is oxidized at a primary amine moiety. After a spontaneous elimination and a catalyzed esterase reaction, the turnover of luciferin by the luciferase is recorded as a signal of AOC3 activity.
An aliquot of 3 μL of the compound dilution is added to a 384 well plate (Optiplate, PS, flat bottom, white, PERKIN ELMER, #6007290) with a final DMSO concentration of 6.6%. Recombinant CHO cells, overexpressing the human (1500 cells/well), mouse (1000 cells/well) or rat (500 cells/well) AOC3 enzyme are diluted in reaction buffer and added in a volume of 15 μL to the wells. After incubation for 20 minutes at 37° C., 2 μL of MAO substrate (dissolved in DMSO at 16 mM, adjusted to assay concentration in reaction buffer to a final assay concentration of 20 μM) is added and further incubated for 60 minutes at 37° C. The turnover of the substrate is determined by the addition of 20 μL of the detection-mix which was generated by the addition of reconstitution buffer with esterase (PROMEGA, #V1402) to the luciferin detection reagent (PROMEGA, #V1402). After an incubation period of 20 minutes, the luminescent signal is measured with Envision 2104 Multilabel Reader (PERKIN ELMER).

AOC2 = molecular target: T2, AOC2 (Homo sapiens, UniProt O75106); experiment: AOC2 biochemical assay (Amplex Red)
T2 construct: host or cells: HEK293 cells (transient transfection), cell homogenate
T2 sequence (O75106 1-756): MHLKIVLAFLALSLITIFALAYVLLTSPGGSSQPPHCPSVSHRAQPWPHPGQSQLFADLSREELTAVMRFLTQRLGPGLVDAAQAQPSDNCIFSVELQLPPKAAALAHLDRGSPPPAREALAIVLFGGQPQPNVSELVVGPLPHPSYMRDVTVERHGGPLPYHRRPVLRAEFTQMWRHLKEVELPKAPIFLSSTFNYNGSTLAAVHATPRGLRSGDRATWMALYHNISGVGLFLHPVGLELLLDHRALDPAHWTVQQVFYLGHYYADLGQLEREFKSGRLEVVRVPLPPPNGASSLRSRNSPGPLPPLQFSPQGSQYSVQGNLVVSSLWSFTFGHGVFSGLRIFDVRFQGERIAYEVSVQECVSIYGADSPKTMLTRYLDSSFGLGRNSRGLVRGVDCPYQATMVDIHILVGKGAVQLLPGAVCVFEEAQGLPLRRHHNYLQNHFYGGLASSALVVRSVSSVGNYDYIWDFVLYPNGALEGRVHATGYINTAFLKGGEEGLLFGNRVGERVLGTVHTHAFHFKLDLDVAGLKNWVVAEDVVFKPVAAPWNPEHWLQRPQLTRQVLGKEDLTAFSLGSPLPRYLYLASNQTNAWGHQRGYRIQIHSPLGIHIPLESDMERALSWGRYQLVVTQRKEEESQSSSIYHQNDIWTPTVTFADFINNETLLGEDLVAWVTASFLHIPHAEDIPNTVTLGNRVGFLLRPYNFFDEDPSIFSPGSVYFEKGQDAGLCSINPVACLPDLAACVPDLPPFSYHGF
Method: The Amplex® Red Assay (commercially available from Thermo Fisher Scientific) provides a sensitive method for the detection of H2O2 generated during enzymatic reactions like the amine oxidation catalyzed by AOC2. […] An aliquot of 5 μL of the compound dilution is added to a 96 well plate (flat bottom F, black, GREINER bio-one, #655900) in a DMSO concentration of 2%. […] Cells are cultured for 3 days in EMEM culture medium containing 10% FCS (#04-00-1A, Biological Industries). After washing twice with ice cold PBS, cells are lysed by mechanic homogenation and cleared supernatants are shock frozen in liquid nitrogen and stored at -80° C. For the determination of AOC2 enzymatic activity cell lysates are thawed on ice and 1:1 diluted with reaction buffer. An Aliquot of 45 μL is added to the compound dilution and incubated for 30 min at 37° C. The enzymatic reaction is started with the addition of 50 μL of Amplex® Red reaction mix (final assay concentration: 100 mM sodiumphosphate, 120 μM Amplex® Red reagent (#A22177 Molecular Probes), 1.5 U/mL Horseradish Peroxidase (#P8375 Sigma-Aldrich), 2 mM phenylethylamine (#[…] Sigma-Aldrich), 0.05% Pluronic F-127 (#P3000MP Sigma-Aldrich), pH 7.4, 37° C.). The turnover per time of the substrate is determined directly with a fluorescence reader (Ex 540 nm/Em 590 nm) like Envision 2104 Multilabel Reader (PERKIN ELMER) for 60 min. (cf. Anal Biochem (1997) 253:169-174; Anal Biochem (1997) 253:162-168)

[2] = comparison table, read-out: IC50 AOC3

Compound | IC50 ([1]; read-out: AOC3 IC50) [nM] | IC50 (AOC2; read-out: AOC2 IC50) [µM] | also measured
NC/C(=C/F)COc1ccc(S(=O)(=O)N2CCCCC2)cn1 [Example 38] | 3 | 0.061 | 
CNC(=O)[C@@H]1[C@@H]2CN(S(=O)(=O)c3ccc(OC/C(=C\F)CN)nc3)C[C@@H]21 [Example 5] | 27 | 0.345 | 
CNC(=O)[C@@]12C[C@@H]1CN(S(=O)(=O)c1ccc(OC/C(=C\F)CN)nc1)C2 [Example 29] | 8 | 0.058 | 
CN(C)S(=O)(=O)c1ccc(OC/C(=C\F)CN)cc1 [Compound 10 of WO 2013/163675, reference compound] |  |  | IC50 [1, 2]: 2 nM; ratio IC50 AOC2/IC50 AOC3 (fold less active against AOC2 as compared to AOC3) (AOC2; AOC2 versus AOC3): ca. 270 fold; IC50 (AOC2; read-out: IC50 AOC2): 0.538 µM
CC1(C(=O)NC2CC2)CCN(S(=O)(=O)c2ccc(OC/C(=C\F)CN)nc2)CC1 [Example 56] | 21 |  | 
CNC(=O)[C@H]1[C@@H]2CN(S(=O)(=O)c3ccc(OC/C(=C\F)CN)nc3)C[C@@H]21 [Example 27] | 5 | 0.062 | 
NC/C(=C/F)COc1ccc(S(=O)(=O)N2CCC(C(=O)N3CCOCC3)CC2)cn1 [Example 3] | 88 |  | IC50 (AOC2; value in μM, read-out: AOC2 IC50): 23.4 µM
CC(=O)N[C@H]1CCCN(S(=O)(=O)c2ccc(OC/C(=C\F)CN)nc2)C1 [Example 6] |  | 0.285 | 
CC1(C(=O)NCCF)CCN(S(=O)(=O)c2ccc(OC/C(=C\F)CN)nc2)CC1 [Example 53] | 17 |  | 
CC(=O)NCC1CCN(S(=O)(=O)c2ccc(OC/C(=C\F)CN)nc2)CC1 [Example 28] | 13 | 0.059 | 
NC/C(=C/F)COc1ccc(S(=O)(=O)N2CCC(C(=O)O)CC2)cn1 [Example 46] | 493 | 0.045 | 
NC/C(=C/F)COc1ccc(S(=O)(=O)N2CC[C@@H](C(N)=O)C2)cn1 [Example 31] | 4 | 0.04 | 
CNC(=O)C1CCN(S(=O)(=O)c2ccc(OC/C(=C\F)CN)nc2)CC1 [Example 37, trifluoroacetate] | 10 | 0.193 | 
CC(C)(O)CNC(=O)[C@H]1CCN(S(=O)(=O)c2ccc(OC/C(=C\F)CN)nc2)C1 [Example 2] | 40 | 0.272 | 
NC/C(=C/F)COc1ccc(S(=O)(=O)N2CCC(CC(=O)O)CC2)cn1 [Example 44, trifluoroacetate] | 110 | 0.001 | 
CCNC(=O)C1CCN(S(=O)(=O)c2ccc(OC/C(=C\F)CN)nc2)CC1 [Example 15] | 9 | 0.202 | 
NC/C(=C/F)COc1ccc(S(=O)(=O)N2CCC[C@@H]2C(N)=O)cn1 [Example 18] | 50 | 0.176 | 
CC1(C(N)=O)CCN(S(=O)(=O)c2ccc(OC/C(=C\F)CN)nc2)CC1 [Example 49] | 8 | 0.021 | 

Compound | IC50 ([1]; read-out: AOC3 IC50) [nM] | IC50 (AOC2; read-out: AOC2 IC50) [µM] | also measured
COC(=O)CC1CCN(S(=O)(=O)c2ccc(OC/C(=C\F)CN)nc2)CC1 [Example 32] | 4 | 0.039 | 
NC/C(=C/F)COc1ccc(S(=O)(=O)N2C[C@@H]3[C@H](C2)[C@H]3C(=O)O)cn1 [Example 45, trans-3-[6-((Z)-2-Aminomethyl-3-fluoro-allyloxy)-pyridine-3-sulfonyl]-3-aza-bicyclo[3.1.0]hexane-6-carboxylic acid trifluoroacetate] | 67 | 0.07 | 
CN(C)C(=O)C1CN(S(=O)(=O)c2ccc(OC/C(=C\F)CN)nc2)C1 [Example 25] | 13 | 0.068 | 
CC(=O)N[C@@H]1CCCN(S(=O)(=O)c2ccc(OC/C(=C\F)CN)nc2)C1 [Example 24] |  | 0.072 | 
NC/C(=C/F)COc1ccc(S(=O)(=O)N2CCC(CC(=O)NCCO)CC2)cn1 [Example 52] | 17 |  | 
NC/C(=C/F)COc1ccc(S(=O)(=O)N2CCC[C@H]2C(N)=O)cn1 [Example 13] | 43 | 0.205 | 
CC(=O)N1CC(C2CCN(S(=O)(=O)c3ccc(OC/C(=C\F)CN)nc3)CC2)C1 [Example 9] | 15 | 0.222 | 
CN(C)C(=O)CC1CCN(S(=O)(=O)c2ccc(OC/C(=C\F)CN)nc2)CC1 [Example 19] | 9 | 0.13 | 
NC/C(=C/F)COc1ccc(S(=O)(=O)N2CC[C@H](O)C2)cc1 [Reference compound B, reference compound] |  |  | IC50 [1, 2]: 6 nM
COC1CN(S(=O)(=O)c2ccc(OC/C(=C\F)CN)nc2)C1 [Example 33] | 3 |  | IC50 (AOC2; comparison table, read-out: IC50 AOC2): 0.055 µM
CNC(=O)[C@@H]1CCCN1S(=O)(=O)c1ccc(OC/C(=C\F)CN)nc1 [Example 8] | 48 | 0.257 | 
NC/C(=C/F)COc1ccc(S(=O)(=O)N2CCC(O)(C(F)(F)F)CC2)cn1 [Example 42] | 6 | 0.009 | 
CC(F)(F)CNC(=O)CC1CCN(S(=O)(=O)c2ccc(OC/C(=C\F)CN)nc2)CC1 [Example 51] | 12 |  | 
NC/C(=C/F)COc1cnc(N2CCC(O)CC2)nc1 [reference compound] |  |  | IC50 [1, 2]: 4 nM
NC/C(=C/F)COc1ccc(S(=O)(=O)N2CCC(CC(=O)N3CC(O)C3)CC2)cn1 [Example 55] | 17 |  | 
CNC(=O)[C@@H]1CCN(S(=O)(=O)c2ccc(OC/C(=C\F)CN)nc2)C1 [Example 14] |  | 0.203 | 
COCCNC(=O)CC1CCN(S(=O)(=O)c2ccc(OC/C(=C\F)CN)nc2)CC1 [Example 54] | 19 |  | 
CNC(=O)[C@H]1CCN(S(=O)(=O)c2ccc(OC/C(=C\F)CN)nc2)C1 [Example 11] |  | 0.21 | 
